According to PubChem BioAssay (NCI):
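Tested at 5 concentrations; 48 h exposure; 96-well plates; endpoints linearly interpolated, else capped at highest concentration. At the GI50, growth is halved. TGI marks complete inhibition of growth.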

What was measured:
Test in all cases: growth of human tumour cells (NCI), 48 h
SK-MEL-28 melanoma = system: SK-MEL-28 melanoma
SK-OV-3 ovarian = system: SK-OV-3 ovarian
SNB-75 CNS = system: SNB-75 CNS
RPMI-8226 leukemia = system: RPMI-8226 leukemia
SK-MEL-5 melanoma = system: SK-MEL-5 melanoma
MOLT-4 leukemia = system: MOLT-4 leukemia
SR leukemia = system: SR leukemia
NCI/ADR-RES ovarian = system: NCI/ADR-RES ovarian
NCI-H23 lung = system: NCI-H23 lung
HL-60(TB) leukemia = system: HL-60(TB) leukemia

Structure (SMILES)	TGI (SK-MEL-28 melanoma) [µM]	TGI (SK-OV-3 ovarian) [µM]	TGI (SNB-75 CNS) [µM]	TGI (RPMI-8226 leukemia) [µM]	TGI (SK-MEL-5 melanoma) [µM]	TGI (MOLT-4 leukemia) [µM]	TGI (SR leukemia) [µM]	TGI (NCI/ADR-RES ovarian) [µM]	TGI (NCI-H23 lung) [µM]	TGI (HL-60(TB) leukemia) [µM]	GI50 (SK-MEL-28 melanoma) [µM]	GI50 (SK-OV-3 ovarian) [µM]	GI50 (SNB-75 CNS) [µM]	GI50 (RPMI-8226 leukemia) [µM]	GI50 (SK-MEL-5 melanoma) [µM]	GI50 (MOLT-4 leukemia) [µM]	GI50 (HL-60(TB) leukemia) [µM]	GI50 (NCI-H23 lung) [µM]
Cc1cn(CC2=NCCCN2)c(=O)[nH]c1=O	> 100	> 100	> 100	> 100	> 100	> 100	> 100	> 100	> 100									
COc1ccc(/C=C2\CC3C4CC=C5C[C@@H](O)CC[C@]5(C)C4CC[C@]3(C)\C2=N\O)cc1OC (some centres undefined)	> 100	> 100	> 100	> 100	45.1	> 100		> 100	> 100	> 100								
C[C@H](CC[C@@H](O)C(C)(C)O)[C@H]1CC[C@@]2(C)[C@@H]3CC=C4[C@@H](CC[C@H](O)C4(C)C)[C@]3(C)C(=O)C[C@]12C	> 50	> 50		29.8	> 50	> 50	> 50	> 50	> 50	> 50								
C=CCN(c1cc(OCc2ccccc2)c(NC(C)=O)cc1[N+](=O)[O-])S(C)(=O)=O	> 100	38.7	43.6	> 100	> 100	> 100		> 100	32.3	> 100								
O=C(NC1(C(=O)NNc2nnc(-c3ccccc3)c(-c3ccccc3)n2)C(c2ccccc2)C(c2ccccc2)=NN1c1ccccc1)c1ccccc1 (centres undefined)		> 100	> 100		> 100	> 100	> 100	> 100	> 100	> 100								
C=C(CC(=O)Nc1ccc(C(=O)OC)o1)C(=O)OC	44.6	86.3	> 100		43.1	47.8		> 100	72.7									
CCOC(=O)c1c2c(n3ccc(NC(=O)OC(C)(C)C)cc13)C(=O)c1ncccc1C2=O	1.4	1.48	1.72	3.16	0.388	7.52			0.669	0.38	0.232	0.236	0.167	0.387	0.174	0.78	0.0256	0.147
NC(c1ccccc1)(C(F)(F)F)P1(=O)OC(=O)c2ccccc2O1 (centres undefined)	> 100	74.4	> 100	> 100	> 100	> 100	> 100	> 100	> 100									
COc1ccc(/C=C(\C(=C/c2ccc(OC)cc2)[N+](=O)[O-])[N+](=O)[O-])cc1	6.76	32.4	68.6	13	15.9	> 70.4	> 100	7.94	16									
O=C1c2ccccc2C(=O)c2c1ccc1c2N=C(c2ccc(F)cc2)CC(c2ccc(Cl)c(Cl)c2)N1 (centres undefined)	36	48.9	40.2	19.3	31	> 100	54.4		33.4	35.9								
